Laboratory results: patent US12071453B2, “Neuroactive steroids, compositions, and uses thereof” (Sage Therapeutics, Inc., priority 2013, dated 2024)

Experiments:
[1] = target: T1, GABAA receptors composed of the α4β3δ subunits (GABRA4/GABRB3/GABRD) (Homo sapiens, UniProt P28472+P48169); experiment: Two Electrode Voltage Clamp (TEVC), GABA receptor potentiation in Xenopus laevis oocytes, α4β3δ; format: cell-based; conditions: 10 μM compound, 3 μM GABA, read-out: GABA (α4β3δ) % efficacy at 10 μM
T1 construct: expressed in transfected cells; host or cells: Xenopus laevis oocytes, injected (ratio 5:1:5)
T1 sequence (P48169 36-554): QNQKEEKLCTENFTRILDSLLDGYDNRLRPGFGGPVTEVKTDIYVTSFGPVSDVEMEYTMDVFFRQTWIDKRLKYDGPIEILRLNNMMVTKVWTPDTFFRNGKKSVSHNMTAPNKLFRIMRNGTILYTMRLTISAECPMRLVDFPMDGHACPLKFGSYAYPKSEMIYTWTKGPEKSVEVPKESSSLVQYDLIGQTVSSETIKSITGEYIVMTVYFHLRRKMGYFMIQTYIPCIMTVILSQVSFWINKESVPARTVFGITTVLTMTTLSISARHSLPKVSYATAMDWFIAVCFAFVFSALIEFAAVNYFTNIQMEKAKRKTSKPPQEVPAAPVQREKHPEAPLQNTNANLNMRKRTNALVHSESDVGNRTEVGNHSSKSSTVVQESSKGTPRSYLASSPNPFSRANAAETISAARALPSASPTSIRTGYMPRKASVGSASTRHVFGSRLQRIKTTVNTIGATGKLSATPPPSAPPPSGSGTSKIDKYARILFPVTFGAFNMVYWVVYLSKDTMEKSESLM
T1 sequence (P28472 26-473): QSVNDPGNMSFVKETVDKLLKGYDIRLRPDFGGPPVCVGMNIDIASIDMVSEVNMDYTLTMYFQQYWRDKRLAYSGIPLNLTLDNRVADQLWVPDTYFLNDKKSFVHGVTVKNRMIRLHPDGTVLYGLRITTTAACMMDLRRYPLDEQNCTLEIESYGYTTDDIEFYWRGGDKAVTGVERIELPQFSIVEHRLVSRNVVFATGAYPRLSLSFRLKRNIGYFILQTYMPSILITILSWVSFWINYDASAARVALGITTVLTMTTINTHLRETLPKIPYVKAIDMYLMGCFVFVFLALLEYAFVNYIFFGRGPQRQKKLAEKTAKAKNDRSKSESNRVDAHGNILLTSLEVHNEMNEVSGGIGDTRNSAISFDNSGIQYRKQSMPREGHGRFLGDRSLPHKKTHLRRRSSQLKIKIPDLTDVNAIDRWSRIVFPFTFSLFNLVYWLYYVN
T1 sequence (O14764 25-452 partner): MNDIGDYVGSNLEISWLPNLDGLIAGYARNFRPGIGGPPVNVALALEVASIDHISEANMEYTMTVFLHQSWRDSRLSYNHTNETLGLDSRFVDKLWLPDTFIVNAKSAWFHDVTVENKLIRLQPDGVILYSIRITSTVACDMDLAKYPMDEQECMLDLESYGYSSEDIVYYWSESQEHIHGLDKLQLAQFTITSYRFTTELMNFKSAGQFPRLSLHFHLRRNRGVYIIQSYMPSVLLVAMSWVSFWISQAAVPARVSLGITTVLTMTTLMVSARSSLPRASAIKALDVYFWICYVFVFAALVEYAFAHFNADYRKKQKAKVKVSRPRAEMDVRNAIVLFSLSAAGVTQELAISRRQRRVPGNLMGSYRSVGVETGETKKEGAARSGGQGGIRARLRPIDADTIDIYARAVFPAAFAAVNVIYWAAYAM
Experimental: (§1) The Two Electrode Voltage Clamp (TEVC) technique was used to investigate the effects of compounds at a concentration of 10 μM on GABAA receptors composed of the α1β2γ2 or α4β3δ subunits expressed in oocytes from the Xenopus laevis. GABA-evoked currents were recorded from oocytes that expressed the GABA receptors and the modulatory effects of the test items on these currents were investigated.
(§2) Ovaries were harvested from Xenopus laevis females that had been deeply anesthetized by cooling at 4° C. and immersion in Tricaine methanesulfonate (MS-222 at a concentration of 150 mg/L) in sodium bicarbonate (300 mg/L). Once anesthetized the animal was decapitated and pithed following the rules of animal rights from the Geneva canton. A small piece of ovary was isolated for immediate preparation while the remaining part was placed at 4° C. in a sterile Barth solution containing in mM NaCl 88, KCl 1, NaHCO3 2.4, HEPES 10, MgSO4·7H2O 0.82, Ca(NO3)2·4H2O 0.33, CaCl2·6H2O 0.41, at pH 7.4, and supplemented with 20 μg/ml of kanamycin, 100 unit/ml penicillin and 100 μg/ml streptomycin. All recordings were performed at 18° C. and cells were super-fused with medium containing in mM: NaCl 82.5, KCl 2.5, HEPES 5, CaCl2·2H2O, ·6H2O 1, pH 7.4.
(§3) Plasmids containing the RNAs of the human GABRA1/GABRB2/GABRG2 and GABRA4/GABRB3/GABRD genes were injected into oocytes using a proprietary automated injection device (Hogg el al., J. Neurosci. Methods, (2008) 169: 65-75). These genes encode for the α1β2γ2 and α4β3δ GABAA subunits respectively. Receptor expression was assessed using electrophysiology at least two days later. The ratio of RNA injection for α1β2γ2 was 1:1:1 and for α4β3δ was 5:1:5. Electrophysiological recordings were made using an automated process equipped with standard TEVC and data were captured and analyzed using a proprietary data acquisition and analysis software running under Matlab (Mathworks Inc.). The membrane potential of the oocytes was maintained at −80 mV throughout the experiments. To explore the effects of proprietary compounds, currents were evoked by applying 10 μM (α1β2γ2) or 3 μM (α4β3δ) GABA for 30 s. These concentrations approximated the EC50 concentration of GABA at each receptor subtype. Oocytes were then re-exposed to GABA again for 30 s. 15 s after beginning the GABA application, test article was co-applied at a concentration of 10 μM for 15 s. Potentiation of the peak current was assessed. Data was filtered at 10 Hz, captured at 100 Hz and analyzed using proprietary data acquisition and analysis software running under Matlab (Mathworks Inc.). For statistical analysis values were computed either with Excel (Microsoft) or Matlab (mathworks Inc.). To obtain mean measurements with standard deviations, all experiments were carried out using at least three cells.

[2] = target: T2, GABAA receptors composed of the α1β2γ2 subunits (GABRA1/GABRB2/GABRG2) (Homo sapiens, UniProt P14867+P47870); experiment: Two Electrode Voltage Clamp (TEVC), GABA receptor potentiation in Xenopus laevis oocytes, α1β2γ2; format: cell-based; conditions: 10 μM compound, 10 μM GABA, read-out: GABA (α1β2γ2) % efficacy at 10 μM
T2 construct: expressed in transfected cells; host or cells: Xenopus laevis oocytes, injected (ratio 1:1:1)
T2 sequence (P14867 28-456): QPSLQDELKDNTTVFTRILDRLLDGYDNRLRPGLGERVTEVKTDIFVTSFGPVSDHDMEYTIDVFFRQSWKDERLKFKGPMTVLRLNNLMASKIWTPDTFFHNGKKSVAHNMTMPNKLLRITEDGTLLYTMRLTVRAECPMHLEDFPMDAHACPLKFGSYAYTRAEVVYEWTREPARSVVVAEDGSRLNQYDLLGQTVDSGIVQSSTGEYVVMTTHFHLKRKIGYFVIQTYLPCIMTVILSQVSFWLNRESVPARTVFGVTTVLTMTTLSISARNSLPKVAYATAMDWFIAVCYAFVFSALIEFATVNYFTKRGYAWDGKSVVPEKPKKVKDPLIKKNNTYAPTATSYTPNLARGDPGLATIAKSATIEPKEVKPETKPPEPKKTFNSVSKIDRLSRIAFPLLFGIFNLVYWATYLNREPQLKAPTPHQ
T2 sequence (P47870 26-512): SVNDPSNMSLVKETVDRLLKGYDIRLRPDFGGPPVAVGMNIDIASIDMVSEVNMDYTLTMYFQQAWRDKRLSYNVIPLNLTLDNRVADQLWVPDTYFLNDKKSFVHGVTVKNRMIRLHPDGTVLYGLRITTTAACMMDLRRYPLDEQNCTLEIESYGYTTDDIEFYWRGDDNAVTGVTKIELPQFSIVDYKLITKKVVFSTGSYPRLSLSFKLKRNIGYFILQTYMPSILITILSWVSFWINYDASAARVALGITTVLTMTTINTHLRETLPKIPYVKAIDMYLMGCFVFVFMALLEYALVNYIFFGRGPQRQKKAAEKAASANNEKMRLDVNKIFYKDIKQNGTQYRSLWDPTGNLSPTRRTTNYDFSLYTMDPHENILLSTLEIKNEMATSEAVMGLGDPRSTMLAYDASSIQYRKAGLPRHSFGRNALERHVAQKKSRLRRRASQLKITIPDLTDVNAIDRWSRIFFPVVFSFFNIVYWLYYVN
T2 sequence (P18507 40-475 partner): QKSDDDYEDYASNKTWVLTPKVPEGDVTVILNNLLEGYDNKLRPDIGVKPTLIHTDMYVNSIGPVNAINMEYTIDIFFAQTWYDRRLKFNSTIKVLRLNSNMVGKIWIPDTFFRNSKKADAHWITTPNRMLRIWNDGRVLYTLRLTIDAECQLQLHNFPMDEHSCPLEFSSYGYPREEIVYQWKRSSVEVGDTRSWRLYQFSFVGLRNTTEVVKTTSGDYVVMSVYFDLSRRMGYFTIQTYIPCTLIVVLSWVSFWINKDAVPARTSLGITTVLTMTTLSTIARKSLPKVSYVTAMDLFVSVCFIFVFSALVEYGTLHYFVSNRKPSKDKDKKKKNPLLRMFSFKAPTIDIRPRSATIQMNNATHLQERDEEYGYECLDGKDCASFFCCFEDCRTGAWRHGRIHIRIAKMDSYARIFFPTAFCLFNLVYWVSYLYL
Experimental: as §1, §2, §3

[3] = target: [35S]-TBPS binding in rat brain cortical membranes; experiment: Steroid inhibition of [35S]-TBPS binding, rat brain cortical membranes; conditions: 3 nM [35S]-TBPS, in the presence of 5 μM GABA, read-out: 35S-TBPS Radioligand Displacement (IC50)
Procedure, shortened: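 Washed P2 cortical membranes from Sprague-Dawley rats were incubated 90 min at room temperature with 3 nM [35S]-TBPS, 5 μM GABA and test steroid (0.5% DMSO) in 200 mM NaCl/50 mM Na–K phosphate, pH 7.4. Nonspecific binding was defined with 2 μM unlabeled TBPS, and samples were filtered and counted. IC50 and Imax came from non-linear fits, reported as mean ± SEM.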

SMILES | Emax at 10 µM [1] [%] | Emax at 10 µM [2] [%] | IC50 [3] [nM]
COC[C@]12CC[C@@](C)(O)C[C@@H]1CC[C@H]1[C@@H]3CC[C@H](C(=O)Cn4ncc5ncc(Br)cc54)[C@@]3(C)CC[C@@H]12 [Compound 67] | 500 to 1000 | 50 to 500 | 10 to 50
COC[C@]12CC[C@@](C)(O)C[C@@H]1CC[C@H]1[C@@H]3CC[C@H](C(=O)Cn4cc5ncc(Cl)cc5n4)[C@@]3(C)CC[C@@H]12 [Compound 68] | 1000 to 1500 | 50 to 500 | 10 to 50
COC[C@]12CC[C@@](C)(O)C[C@@H]1CC[C@H]1[C@@H]3CC[C@H](C(=O)Cn4ncc5ncc(Cl)cc54)[C@@]3(C)CC[C@@H]12 [Compound 69] | 1000 to 1500 | 500 to 1000 | 10 to 50
CCOC[C@]12CC[C@@](C)(O)C[C@@H]1CC[C@H]1[C@@H]3CC[C@H](C(=O)Cn4nnc5ccc(Cl)cc54)[C@@]3(C)CC[C@@H]12 [Compound 70] | 1000 to 1500 | 50 to 500 | 50 to 100
CCOC[C@]12CC[C@@](C)(O)C[C@@H]1CC[C@H]1[C@@H]3CC[C@H](C(=O)Cn4nnc5cc(Cl)ccc54)[C@@]3(C)CC[C@@H]12 [Compound 71] | 1000 to 1500 | 50 to 500 | 10 to 50
CCOC[C@]12CC[C@@](C)(O)C[C@@H]1CC[C@H]1[C@@H]3CC[C@H](C(=O)Cn4nc5ccc(Cl)cc5n4)[C@@]3(C)CC[C@@H]12 [Compound 72] | 1000 to 1500 | 50 to 500 | 10 to 50
COC[C@]12CC[C@@](C)(O)C[C@H]1CC[C@H]1[C@@H]3CC[C@H](C(=O)Cn4nc5ccc(F)c(F)c5n4)[C@@]3(C)CC[C@@H]12 [Compound 79] | 1000 to 1500 | 500 to 1000 | < 10
COC[C@]12CC[C@@](C)(O)C[C@@H]1CC[C@H]1[C@@H]3CC[C@H](C(=O)Cn4nnc5cc(F)c(F)cc54)[C@@]3(C)CC[C@@H]12 [Compound 98] | 1000 to 1500 | 500 to 1000 | 50 to 100
COC[C@]12CC[C@@](C)(O)C[C@@H]1CC[C@H]1[C@@H]3CC[C@H](C(=O)Cn4ncc5nccnc54)[C@@]3(C)CC[C@@H]12 [Compound 102] | 50 to 500 | 50 to 500 | 100 to 500
COC[C@]12CC[C@@](C)(O)C[C@@H]1CC[C@H]1[C@@H]3CC[C@H](C(=O)Cn4nc5ccc(OC(F)(F)F)cc5n4)[C@@]3(C)CC[C@@H]12 [Compound 104] | 1000 to 1500 | 50 to 500 | 50 to 100
COC[C@]12CC[C@@](C)(O)C[C@@H]1CC[C@H]1[C@@H]3CC[C@H](C(=O)Cn4ncc5cc(Cl)ccc54)[C@@]3(C)CC[C@@H]12 [Compound 105] | 1000 to 1500 | 50 to 500 | > 500
COC[C@]12CC[C@@](C)(O)C[C@@H]1CC[C@H]1[C@@H]3CC[C@H](C(=O)Cn4cc5cc(Cl)ccc5n4)[C@@]3(C)CC[C@@H]12 [Compound 106] | 1000 to 1500 | 50 to 500 | 100 to 500
COC[C@]12CC[C@@](C)(O)C[C@@H]1CC[C@H]1[C@@H]3CC[C@H](C(=O)Cn4nc5ccc(Cl)c(F)c5n4)[C@@]3(C)CC[C@@H]12 [Compound 109] | 1000 to 1500 | 50 to 500 | 50 to 100
COC[C@]12CC[C@@](C)(O)C[C@@H]1CC[C@H]1[C@@H]3CC[C@H](C(=O)Cn4cc5ccc(Cl)cc5n4)[C@@]3(C)CC[C@@H]12 [Compound 113] | 500 to 1000 | 50 to 500 | 100 to 500
